Assay: xn = mol fraction of the nth substance listed
Conditions: 298 K, Liquid

ClCCCCCl [1,4-dichlorobutane] + CC(=O)N(C)C
mass density [kg/m3]
Conditions | x2 = 0.0975 | x2 = 0.2001 | x2 = 0.2996 | x2 = 0.4017 | x2 = 0.5009 | x2 = 0.5981 | x2 = 0.6987 | x2 = 0.801 | x2 = 0.9012
10000 kPa | – | – | – | – | 1047.6 | 1028.5 | 1007.6 | 986.3 | 964.7
10500 kPa | 1124.1 | 1105.5 | 1086.8 | 1067.3 | 1047.9 | 1028.8 | 1008 | 986.7 | 965
11000 kPa | 1124.4 | 1105.8 | 1087.2 | 1067.6 | 1048.2 | 1029.1 | 1008.3 | 986.9 | 965.2
11500 kPa | 1124.7 | 1106.2 | 1087.5 | 1068 | 1048.6 | 1029.5 | 1008.6 | 987.3 | 965.6
11900 kPa | – | – | – | – | – | – | – | 987.6 | –
12000 kPa | 1125.1 | 1106.6 | 1087.8 | 1068.3 | 1048.9 | 1029.8 | 1008.9 | – | 965.9
12500 kPa | 1125.5 | 1106.8 | 1088.2 | 1068.7 | 1049.2 | 1030.1 | 1009.3 | 987.9 | 966.3
13000 kPa | 1125.8 | 1107.2 | 1088.5 | 1069 | 1049.6 | 1030.4 | 1009.6 | 988.2 | 966.5
13400 kPa | – | – | – | 1069.3 | 1049.9 | – | – | – | –
13500 kPa | 1126.1 | 1107.6 | 1088.9 | – | – | 1030.7 | 1009.9 | 988.5 | 966.8
14000 kPa | 1126.5 | 1107.9 | 1089.1 | 1069.7 | 1050.3 | 1031 | 1010.2 | 988.8 | 967.1
14500 kPa | 1126.8 | 1108.2 | 1089.5 | 1070 | 1050.6 | 1031.4 | 1010.5 | 989.1 | 967.4
15000 kPa | 1127.2 | 1108.6 | 1089.9 | 1070.3 | 1050.9 | 1031.6 | 1010.8 | 989.4 | 967.7
15500 kPa | 1127.6 | 1108.9 | 1090.2 | 1070.6 | 1051.2 | 1032 | 1011.1 | 989.7 | 968
16000 kPa | 1127.9 | 1109.3 | 1090.5 | 1071 | 1051.5 | 1032.3 | 1011.4 | 990 | 968.2
16400 kPa | 1128.2 | – | – | – | 1051.8 | – | – | – | –
16500 kPa | – | 1109.6 | 1090.9 | 1071.4 | – | 1032.6 | 1011.7 | 990.2 | 968.5
17000 kPa | 1128.6 | 1109.9 | 1091.2 | 1071.6 | 1052.1 | 1032.9 | 1012 | 990.5 | 968.7
17500 kPa | 1129 | 1110.3 | 1091.6 | 1072 | 1052.4 | 1033.2 | 1012.4 | 990.8 | 969.1
17900 kPa | – | – | – | – | 1052.7 | – | – | – | –
18000 kPa | 1129.3 | 1110.6 | 1091.8 | 1072.3 | – | 1033.5 | 1012.7 | 991.1 | 969.3
18500 kPa | 1129.6 | 1110.9 | 1092.2 | 1072.6 | 1053.1 | 1033.8 | 1013 | 991.4 | 969.6
19000 kPa | 1130 | 1111.3 | 1092.5 | 1073 | 1053.5 | 1034.2 | 1013.3 | 991.8 | 969.9
19500 kPa | 1130.3 | 1111.7 | 1092.8 | 1073.3 | 1053.8 | 1034.5 | 1013.6 | 992 | 970.1
20000 kPa | 1130.8 | 1112 | 1093.3 | 1073.8 | 1054.1 | 1034.8 | 1014 | 992.4 | 970.5

Source: the NIST ThermoML archive (doi:10.1021/je700339f)
